Article PMC3261785 (Journal of Medicinal Chemistry, 2011)
“Also recorded” adds a separate entry of the source.

Biological target: human A2AAR (Homo sapiens, UniProt P29274)
Test: Radioligand binding assay at A2AAR, membranes of HEK-293 cells, [3H]16
Conditions: comparison within the amino acid conjugate series and with parent 16

Sequence of human A2AAR (P29274 whole entry): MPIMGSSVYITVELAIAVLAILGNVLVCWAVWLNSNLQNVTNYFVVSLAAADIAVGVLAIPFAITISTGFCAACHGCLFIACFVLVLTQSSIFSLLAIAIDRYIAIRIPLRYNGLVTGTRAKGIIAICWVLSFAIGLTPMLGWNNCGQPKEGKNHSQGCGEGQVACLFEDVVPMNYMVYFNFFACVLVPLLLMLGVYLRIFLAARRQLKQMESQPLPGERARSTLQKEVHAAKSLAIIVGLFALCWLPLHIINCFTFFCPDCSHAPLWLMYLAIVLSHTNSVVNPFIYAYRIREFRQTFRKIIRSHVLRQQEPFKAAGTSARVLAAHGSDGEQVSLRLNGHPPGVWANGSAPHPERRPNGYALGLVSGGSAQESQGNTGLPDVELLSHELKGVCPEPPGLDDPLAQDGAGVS

Row | SMILES | Relative A2AAR binding affinity (in words)
1 | CCNC(=O)[C@H]1O[C@@H](n2cnc3c(N)nc(NCCc4ccc(CCC(=O)N[C@H](CCCNC(=N)N)C(=O)O)cc4)nc32)[C@H](O)[C@@H]1O [Compound 36] | some gain in affinity
2 | CCNC(=O)[C@H]1O[C@@H](n2cnc3c(N)nc(NCCc4ccc(CCC(=O)N[C@H](Cc5ccccc5)C(=O)O)cc4)nc32)[C@H](O)[C@@H]1O [Compound 38] | most potent; also recorded: some gain in affinity
3 | CCNC(=O)[C@H]1O[C@@H](n2cnc3c(N)nc(NCCc4ccc(CCC(=O)N[C@H](Cc5c[nH]cn5)C(=O)O)cc4)nc32)[C@H](O)[C@@H]1O [Compound 42] | most potent; also recorded: some gain in affinity
